What all share (assay type): cell-based
For assay [1], the system named is P. aeruginosa strain MP-3. Briefly: Broth dilution MIC determination (CLSI) against P. aeruginosa strain MP-3. To be noted: Pseudomonas aeruginosa, MP3. Here is the method: (§1) Minimum inhibitory concentrations (MICs) for macrolides described herein were determined for E. coli strain MP-4, K. pneumoniae strain MP-548, P. aeruginosa strain MP-3, A. baumannii strain MP-15, and S. aureus strain MP-12 using similar test procedures as published in US Pat. Pub. No. 2017/0305953. MIC data is represented as “+++” for values less than or equal to 4 mg/L, “++” for values of greater than or equal to 8 mg/L and less than 32 mg/L, and “+” for values of 32 mg/L or greater. ND indicates no data for a particular compound. CLSI standard procedures for broth dilution MIC determination were used.
In general terms: Broth dilution looks for growth in wells or tubes with falling amounts of substance.

Another assay has as its system S. aureus strain MP-12. Kind of assay: Broth dilution MIC determination (CLSI) against S. aureus strain MP-12. To be noted: Staphylococcus aureus, MP12, strain MP-12. As to the method: as §1
Assay [2] concerns A. baumannii strain MP-15. Kind of assay: Broth dilution MIC determination (CLSI) against A. baumannii strain MP-15. The settings on record: Acinetobacter baumannii, MP15. As to the method: as §1
Assay [3] deals with K. pneumoniae strain MP-548. Briefly: Broth dilution MIC determination (CLSI) against K. pneumoniae strain MP-548. To be noted: Klebsiella pneumoniae, MP548. Here is the method: as §1
The test system of another assay is E. coli strain MP-4. Briefly: Broth dilution MIC determination (CLSI) against E. coli strain MP-4. The settings on record: Escherichia coli, MP4. Here is the method: as §1

In brackets after ≈: the same amount, converted by molar mass. A value given as a limit tells only on which side of the number the result lay.

One may read the MIC as the lowest concentration found to suppress growth. For `CC[C@H]1OC(=O)[C@@](C)(F)C(=O)[C@H](C)[C@@H](O[C@@H]2OC(CNCc3ccc(-c4cncnc4)cc3)CC(N(C)C)C2O)[C@](C)(OC)C[C@@H](C)C(=O)[C@H](C)[C@H]2NC(=O)O[C@@]21C` (some centres unmarked) [Compound 92], the MIC in assay [1] is not below 32 µg/mL; in the assay with S. aureus strain MP-12, not above 4 µg/mL; in assay [2] it was not below 32 µg/mL; in assay [3], not below 32 µg/mL; in the assay on E. coli strain MP-4, not below 32 µg/mL.
For `CC[C@H]1OC(=O)[C@@](C)(F)C(=O)[C@H](C)[C@@H](O[C@@H]2OC(CNCc3cccc(-c4cncnc4)c3)CC(N(C)C)C2O)[C@](C)(OC)C[C@@H](C)C(=O)[C@H](C)[C@H]2NC(=O)O[C@@]21C` (some centres unmarked) [Compound 93], the MIC in assay [1] was not below 32 µg/mL; in the assay on S. aureus strain MP-12 it was not above 4 µg/mL; in assay [2], not below 32 µg/mL; in assay [3], not below 32 µg/mL; in the assay with E. coli strain MP-4 it was not below 32 µg/mL.
For `CC[C@H]1OC(=O)[C@@](C)(F)C(=O)[C@H](C)[C@@H](O[C@@H]2OC(CNc3ccc(-c4cncnc4)cc3)CC(N(C)C)C2O)[C@](C)(OC)C[C@@H](C)C(=O)[C@H](C)[C@H]2NC(=O)O[C@@]21C` (some centres unmarked) [Compound 94], the MIC was not below 32 µg/mL in assay [1]; not above 4 µg/mL in the assay on S. aureus strain MP-12; 8 to 32 µg/mL (≈ 10 to 40 µM) in assay [2]; not below 32 µg/mL in assay [3]; not below 32 µg/mL in the assay with E. coli strain MP-4.
For the molecule `CC[C@H]1OC(=O)[C@@](C)(F)C(=O)[C@H](C)[C@@H](O[C@@H]2OC(CNCc3ccccn3)CC(N(C)C)C2O)[C@](C)(OC)C[C@@H](C)C(=O)[C@H](C)[C@H]2NC(=O)O[C@@]21C` (some centres unmarked) [Compound 100], the MIC in assay [1] is not below 32 µg/mL; with S. aureus strain MP-12, not above 4 µg/mL; in assay [2] it was not below 32 µg/mL; in assay [3] it was not below 32 µg/mL; against E. coli strain MP-4, 8 to 32 µg/mL (≈ 10.9 to 43.4 µM).
For `CC[C@H]1OC(=O)[C@@](C)(F)C(=O)[C@H](C)[C@@H](O[C@@H]2OC(CNCc3cccnc3)CC(N(C)C)C2O)[C@](C)(OC)C[C@@H](C)C(=O)[C@H](C)[C@H]2NC(=O)O[C@@]21C` (some centres unmarked) [Compound 101], the MIC in assay [1] is not below 32 µg/mL; against S. aureus strain MP-12, not above 4 µg/mL; in assay [2] it was not below 32 µg/mL; in assay [3], not below 32 µg/mL; in the assay with E. coli strain MP-4, not below 32 µg/mL.
As for `CC[C@H]1OC(=O)[C@@](C)(F)C(=O)[C@H](C)[C@@H](O[C@@H]2OC(CNCc3ccn(C)n3)CC(N(C)C)C2O)[C@](C)(OC)C[C@@H](C)C(=O)[C@H](C)[C@H]2NC(=O)O[C@@]21C` (some centres unmarked) [Compound 102], the MIC was not below 32 µg/mL in assay [1]; not above 4 µg/mL in the assay with S. aureus strain MP-12; not below 32 µg/mL in assay [2]; not below 32 µg/mL in assay [3]; 8 to 32 µg/mL (≈ 10.8 to 43.3 µM) with E. coli strain MP-4.
Regarding `CC[C@H]1OC(=O)[C@@](C)(F)C(=O)[C@H](C)[C@@H](O[C@@H]2OC(COCCO)CC(N(C)C)C2O)[C@](C)(OC)C[C@@H](C)C(=O)[C@H](C)[C@H]2NC(=O)O[C@@]21C` (some centres unmarked) [Compound 103], the MIC in assay [1] is not below 32 µg/mL; in the assay on S. aureus strain MP-12, not above 4 µg/mL; in assay [2] it was not below 32 µg/mL; in assay [3] it was not below 32 µg/mL; in the assay with E. coli strain MP-4 it was not below 32 µg/mL.
For `CC[C@H]1OC(=O)[C@@](C)(F)C(=O)[C@H](C)[C@@H](O[C@@H]2OC(COC/C=C/c3cnc4ccccc4c3)CC(N(C)C)C2O)[C@](C)(OC)C[C@@H](C)C(=O)[C@H](C)[C@H]2NC(=O)O[C@@]21C` (some centres unmarked) [Compound 104], the MIC was not below 32 µg/mL in assay [1]; not above 4 µg/mL in the assay on S. aureus strain MP-12; 8 to 32 µg/mL (≈ 9.83 to 39.3 µM) in assay [2]; not below 32 µg/mL in assay [3]; not below 32 µg/mL in the assay on E. coli strain MP-4.
For the molecule `CC[C@H]1OC(=O)[C@@](C)(F)C(=O)[C@H](C)[C@@H](O[C@@H]2OC(COC/C=C/c3cncnc3)CC(N(C)C)C2O)[C@](C)(OC)C[C@@H](C)C(=O)[C@H](C)[C@H]2NC(=O)O[C@@]21C` (some centres unmarked) [Compound 105], the MIC in assay [1] is not below 32 µg/mL; against S. aureus strain MP-12, not above 4 µg/mL; in assay [2], not below 32 µg/mL; in assay [3], not below 32 µg/mL; in the assay with E. coli strain MP-4 it was not below 32 µg/mL.
With `CC[C@H]1OC(=O)C(C)C(=O)[C@H](C)[C@@H](OC2OC(CNC)CC(N(C)C)C2O)[C@](C)(OC)C[C@@H](C)CN[C@H](C)[C@H]2NC(=O)O[C@@]21C` (some centres unmarked) [Compound 106, 3-Descladinosyl-3-oxo-6-O-methyl-N9a-desmethyl-11,12-dideoxy-12,11-(oxycarbonylimino)-6′-methylamino Azithromycin], the minimum inhibitory concentration (MIC) in assay [1] is not below 32 µg/mL; against S. aureus strain MP-12 it was not below 32 µg/mL; in assay [2], not below 32 µg/mL; in assay [3] it was not below 32 µg/mL; in the assay with E. coli strain MP-4, 8 to 32 µg/mL (≈ 12.4 to 49.8 µM).
For the molecule `CCNCC1CC(N(C)C)C(O)C(O[C@@H]2[C@@H](C)C(=O)C(C)C(=O)O[C@H](CC)[C@@]3(C)OC(=O)N[C@@H]3[C@@H](C)NC[C@H](C)C[C@@]2(C)OC)O1` (some centres unmarked) [Compound 108, 3-Descladinosyl-3-oxo-6-O-methyl-N9a-desmethyl-11,12-dideoxy-12,11-(oxycarbonylimino)-6′-ethylamino azithromycin], the MIC is not below 32 µg/mL in assay [1]; not below 32 µg/mL in the assay on S. aureus strain MP-12; not below 32 µg/mL in assay [2]; not below 32 µg/mL in assay [3]; 8 to 32 µg/mL (≈ 12.2 to 48.7 µM) in the assay on E. coli strain MP-4.
Turning to `CC[C@H]1OC(=O)C(C)C(=O)[C@H](C)[C@@H](OC2OC(CNC(C)C)CC(N(C)C)C2O)[C@](C)(OC)C[C@@H](C)CN[C@H](C)[C@H]2NC(=O)O[C@@]21C` (some centres unmarked) [Compound 109, 3-Descladinosyl-3-oxo-6-O-methyl-N9a-desmethyl-11,12-dideoxy-12,11-(oxycarbonylimino)-6′-isopropylamino Azithromycin], the MIC is not below 32 µg/mL in assay [1]; not below 32 µg/mL in the assay with S. aureus strain MP-12; not below 32 µg/mL in assay [2]; not below 32 µg/mL in assay [3]; 8 to 32 µg/mL (≈ 11.9 to 47.7 µM) with E. coli strain MP-4.
Take `CC[C@H]1OC(=O)C(C)C(=O)[C@H](C)[C@@H](OC2OC(CNC(C)(C)C)CC(N(C)C)C2O)[C@](C)(OC)C[C@@H](C)CN[C@H](C)[C@H]2NC(=O)O[C@@]21C` (some centres unmarked) [Compound 110, 3-Descladinosyl-3-oxo-6-O-methyl-N9a-desmethyl-11,12-dideoxy-12,11-(oxycarbonylimino)-6′-tert-butylamino Azithromycin]: the MIC in assay [1] is not below 32 µg/mL; against S. aureus strain MP-12 it was not below 32 µg/mL; in assay [2], not below 32 µg/mL; in assay [3], 8 to 32 µg/mL (≈ 11.7 to 46.7 µM); in the assay with E. coli strain MP-4, not above 4 µg/mL.
With `CC[C@H]1OC(=O)C(C)C(=O)[C@H](C)[C@@H](OC2OC(CNCCF)CC(N(C)C)C2O)[C@](C)(OC)C[C@@H](C)CN[C@H](C)[C@H]2NC(=O)O[C@@]21C` (some centres unmarked) [Compound 111, 3-Descladinosyl-3-oxo-6-O-methyl-N9a-desmethyl-11,12-dideoxy-12,11-(oxycarbonylimino)-6′-(2-fluoroethylamino) Azithromycin], the MIC in assay [1] is not below 32 µg/mL; with S. aureus strain MP-12, not below 32 µg/mL; in assay [2] it was not below 32 µg/mL; in assay [3] it was not above 4 µg/mL; in the assay with E. coli strain MP-4, not above 4 µg/mL.
With `CC[C@H]1OC(=O)C(C)C(=O)[C@H](C)[C@@H](OC2OC(CNCC(F)(F)F)CC(N(C)C)C2O)[C@](C)(OC)C[C@@H](C)CN[C@H](C)[C@H]2NC(=O)O[C@@]21C` (some centres unmarked) [Compound 112, 3-Descladinosyl-3-oxo-6-O-methyl-N9a-desmethyl-11,12-dideoxy-12,11-(oxycarbonylimino)-6′-(2-trifluoroethylamino) Azithromycin], the MIC was not below 32 µg/mL in assay [1]; not above 4 µg/mL in the assay on S. aureus strain MP-12; 8 to 32 µg/mL (≈ 11.3 to 45 µM) in assay [2]; 8 to 32 µg/mL (≈ 11.3 to 45 µM) in assay [3]; not above 4 µg/mL against E. coli strain MP-4.
In the case of `CC[C@H]1OC(=O)C(C)C(=O)[C@H](C)[C@@H](OC2OC(CNCC(C)(C)O)CC(N(C)C)C2O)[C@](C)(OC)C[C@@H](C)CN[C@H](C)[C@H]2NC(=O)O[C@@]21C` (some centres unmarked) [Compound 113, 3-Descladinosyl-3-oxo-6-O-methyl-N9a-desmethyl-11,12-dideoxy-12,11-(oxycarbonylimino)-6′-(2-methylpropan-2-ol-amino) Azithromycin], the MIC in assay [1] was not below 32 µg/mL; against S. aureus strain MP-12 it was not below 32 µg/mL; in assay [2], not below 32 µg/mL; in assay [3], not below 32 µg/mL; with E. coli strain MP-4, 8 to 32 µg/mL (≈ 11.4 to 45.7 µM).
Consider `CC[C@H]1OC(=O)C(C)C(=O)[C@H](C)[C@@H](OC2OC(CNCCOC)CC(N(C)C)C2O)[C@](C)(OC)C[C@@H](C)CN[C@H](C)[C@H]2NC(=O)O[C@@]21C` (some centres unmarked) [Compound 114, 3-Descladinosyl-3-oxo-6-O-methyl-N9a-desmethyl-11,12-dideoxy-12,11-(oxycarbonylimino)-6′-(2-methoxyamino) Azithromycin], for which the MIC in assay [1] is not below 32 µg/mL; in the assay with S. aureus strain MP-12, not below 32 µg/mL; in assay [2], not below 32 µg/mL; in assay [3], 8 to 32 µg/mL (≈ 11.6 to 46.6 µM); against E. coli strain MP-4, not above 4 µg/mL.
Consider `CC[C@H]1OC(=O)C(C)C(=O)[C@H](C)[C@@H](OC2OC(CNCCO)CC(N(C)C)C2O)[C@](C)(OC)C[C@@H](C)CN[C@H](C)[C@H]2NC(=O)O[C@@]21C` (some centres unmarked) [Compound 115, 3-Descladinosyl-3-oxo-6-O-methyl-N9a-desmethyl-11,12-dideoxy-12,11-(oxycarbonylimino)-6′-(2-hydroxyethylamino) Azithromycin], for which the MIC (in assay [1]; against S. aureus strain MP-12; in assay [2]; in assay [3]; against E. coli strain MP-4) was not below 32 µg/mL each time.
As for `CC[C@H]1OC(=O)C(C)C(=O)[C@H](C)[C@@H](OC2OC(CNCC(N)=O)CC(N(C)C)C2O)[C@](C)(OC)C[C@@H](C)CN[C@H](C)[C@H]2NC(=O)O[C@@]21C` (some centres unmarked) [Compound 116, 3-Descladinosyl-3-oxo-6-O-methyl-N9a-desmethyl-11,12-dideoxy-12,11-(oxycarbonylimino)-6′-(N-acetamidylamino) Azithromycin], the MIC in assay [1] was not below 32 µg/mL; with S. aureus strain MP-12, not below 32 µg/mL; in assay [2], not below 32 µg/mL; in assay [3] it was not below 32 µg/mL; in the assay with E. coli strain MP-4 it was not above 4 µg/mL.

For the origin of these results see patent US11673910B2, “Macrolides with modified desosamine sugars and uses thereof” (Zikani Therapeutics, Inc., priority 2017, dated 2023).
